Measurements published in ChEMBL document CHEMBL2169755, “A Divergent SAR Study Allows Optimization of a Potent 5-HT2c Inhibitor to a Promising Antimalarial Scaffold” (ACS Med Chem Lett, 2012).
≈ marks a conversion by molar mass, not a printed value. Calls of active or inactive are those of the source. No cut-off for these calls is given here.

Key:
[1] = system: Plasmodium falciparum; assay: microbe, parasite or virus in culture; details: 3D7 A
Description: Antiplasmodial activity against Plasmodium falciparum 3D7A assessed as inhibition of [3H]hypoxanthine incorporation incubated for 24 hrs prior to [3H]hypoxanthine addition measured after 24 hrs by beta scintillation counting

[2] = system: Liver; assay: Intrinsic clearance in mouse liver microsomes at 0.5 uM by HPLC analysis; type: ADME, Microsome
[3] = system: Liver microsomes; assay: Intrinsic clearance in human liver microsomes at 0.5 uM by HPLC analysis; type: ADME, Microsome
[4] = target: T1, 5-hydroxytryptamine receptor 2C (Homo sapiens, UniProt P28335); assay: Inhibition of human 5HT2c receptor expressed in CHO-K1 cells assessed as inhibition of 5HT-induced calcium influx measured up to 30 secs by aequorin luminescence assay; type: functional, cell-based
T1 sequence (P28335 whole entry): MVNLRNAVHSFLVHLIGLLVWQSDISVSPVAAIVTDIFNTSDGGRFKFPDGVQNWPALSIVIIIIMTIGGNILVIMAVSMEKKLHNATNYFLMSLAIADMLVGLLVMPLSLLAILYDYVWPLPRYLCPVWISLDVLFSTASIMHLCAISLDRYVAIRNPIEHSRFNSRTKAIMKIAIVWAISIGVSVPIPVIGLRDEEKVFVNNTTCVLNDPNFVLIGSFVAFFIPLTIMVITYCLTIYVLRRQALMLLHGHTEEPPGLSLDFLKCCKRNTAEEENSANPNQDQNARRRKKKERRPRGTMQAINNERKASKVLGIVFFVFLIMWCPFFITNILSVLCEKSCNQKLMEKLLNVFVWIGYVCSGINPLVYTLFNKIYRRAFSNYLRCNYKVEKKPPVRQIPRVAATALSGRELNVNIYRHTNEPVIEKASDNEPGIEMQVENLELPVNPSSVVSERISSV

[5] = system: Plasmodium falciparum; assay: Antiplasmodial activity against Plasmodium falciparum Dd2 assessed as inhibition of [3H]hypoxanthine incorporation incubated for 24 hrs prior to [3H]hypoxanthine addition measured after 24 hrs by beta scintillation counting; type: functional, organism-based
[6] = system: Plasmodium berghei; assay: Antimalarial activity against Plasmodium berghei ANKA infected in CD1 mouse assessed as inhibition of parasitemia at 50 mg/kg, po administered QD for 2 days measured after 4 days by YOYO1-based flow cytometric analysis relative to vehicle-treated control; type: functional
[7] = system: Plasmodium berghei; assay: Antimalarial activity against Plasmodium berghei ANKA assessed as reduction in viable parasites at 10 times IC50 after 72 hrs; type: functional, organism-based
[8] = system: Plasmodium falciparum; assay: Antiplasmodial activity against Plasmodium falciparum assessed as pyknotic phenotype after 24 hrs by Giemsa-staining method; type: functional, organism-based
[9] = target: Cytochrome P450 2D6 (Homo sapiens, UniProt P10635); assay: Inhibition of human CYP2D6 using 4-methylaminomethyl-7-methoxycoumarin as substrate incubated for 30 mins prior to substrate addition measured up to 10 mins by fluorimetry; type: ADME
[10] = Cytotoxicity against mouse L1210 cells after 48 hrs by resazurin reduction assay; type: cell-based; details: read-out: TC50
[11] = system: Plasmodium falciparum; assay: Selectivity ratio of IC50 for Plasmodium falciparum Dd2 to IC50 for Plasmodium falciparum HB3; type: functional
[12] = target: Cytochrome P450 2C9 (Homo sapiens, UniProt P11712); assay: Inhibition of human CYP2C9 using 7-methoxy-4-triflouromethylcoumarin-3-acetic acid as substrate incubated for 30 mins prior to substrate addition measured up to 10 mins by fluorimetry; type: ADME
[13] = Equilibrium solubility of the compound in phosphate buffer saline after 24 hrs by LC-MS analysis at pH 7.4; type: physicochemical
[14] = target: Voltage-gated inwardly rectifying potassium channel KCNH2 (Homo sapiens, UniProt Q12809); assay: Displacement of Cy3b-tagged dofetilide from human ERG expressed in CHO cells by fluorescence polarization assay
[15] = target: Cytochrome P450 2C19 (Homo sapiens, UniProt P33261); assay: Inhibition of human CYP2C19 using 3-butyryl-7-methoxycoumarin as substrate incubated for 30 mins prior to substrate addition measured up to 10 mins by fluorimetry; type: ADME
[16] = Chromatographic hydrophobicity index of the compound at pH 7.4; type: physicochemical
[17] = target: Cytochrome P450 3A4 (Homo sapiens, UniProt P08684); assay: Inhibition of human CYP3A4 using 7-benzyloxyquinoline as substrate incubated for 30 mins prior to substrate addition measured up to 10 mins by fluorimetry; type: ADME
[18] = Cytotoxicity against human HepG2 cells after 48 hrs by resazurin reduction assay; type: cell-based; details: read-out: TC50
[19] = system: Plasmodium falciparum; assay: Antiplasmodial activity against Plasmodium falciparum assessed as pyknotic phenotype at 10-fold IC50 after 24 hrs by Giemsa-staining method; type: functional, organism-based
[20] = Cytotoxicity against MDCK cells after 48 hrs by resazurin reduction assay; type: cell-based, Canis lupus familiaris; details: dog, read-out: TC50
[21] = system: Plasmodium falciparum; assay: Antiplasmodial activity against Plasmodium falciparum 3D7A assessed as inhibition of [3H]hypoxanthine incorporation after 72 hrs by beta scintillation counting; type: functional, organism-based; details: 3D7 A
[22] = Equilibrium solubility of the compound in fed state simulated intestinal fluid after 24 hrs by LC-MS analysis at pH 5; type: physicochemical
[23] = system: Plasmodium falciparum; assay: Antiplasmodial activity against Plasmodium falciparum 3D7A assessed as inhibition of [3H]hypoxanthine incorporation after 96 hrs by beta scintillation counting; type: functional, organism-based; details: 3D7 A
[24] = Chromatographic hydrophobicity index of the compound at pH 10.5; type: physicochemical
[25] = Cytotoxicity against mouse Neuro2a cells after 48 hrs by resazurin reduction assay; type: cell-based, N2a; details: read-out: TC50
[26] = target: Albumin (Homo sapiens, UniProt P02768); assay: Binding affinity to human serum albumin by HPLC analysis; type: ADME; details: isolated protein
[27] = Cytotoxicity against rat H9c2(2-1) cells after 48 hrs by resazurin reduction assay; type: cell-based; details: read-out: TC50
[28] = Plasma protein binding in mouse at 1 ug/mL by equilibrium dialysis method; type: ADME, cell-free; details: read-out: PPB (converted)
[29] = Chromatographic hydrophobicity index of the compound at pH 2; type: physicochemical
[30] = system: Plasmodium falciparum; assay: Antiplasmodial activity against Plasmodium falciparum HB3 assessed as inhibition of [3H]hypoxanthine incorporation incubated for 24 hrs prior to [3H]hypoxanthine addition measured after 24 hrs by beta scintillation counting; type: functional, organism-based
[31] = Equilibrium solubility of the compound in fasted state simulated intestinal fluid after 24 hrs by LC-MS analysis at pH 6.8; type: physicochemical
[32] = Equilibrium solubility of the compound in simulated gastric fluid after 24 hrs by LC-MS analysis at pH1.2; type: physicochemical; details: pH 1.2

Chain of Cytochrome P450 3A4 (P08684 whole entry): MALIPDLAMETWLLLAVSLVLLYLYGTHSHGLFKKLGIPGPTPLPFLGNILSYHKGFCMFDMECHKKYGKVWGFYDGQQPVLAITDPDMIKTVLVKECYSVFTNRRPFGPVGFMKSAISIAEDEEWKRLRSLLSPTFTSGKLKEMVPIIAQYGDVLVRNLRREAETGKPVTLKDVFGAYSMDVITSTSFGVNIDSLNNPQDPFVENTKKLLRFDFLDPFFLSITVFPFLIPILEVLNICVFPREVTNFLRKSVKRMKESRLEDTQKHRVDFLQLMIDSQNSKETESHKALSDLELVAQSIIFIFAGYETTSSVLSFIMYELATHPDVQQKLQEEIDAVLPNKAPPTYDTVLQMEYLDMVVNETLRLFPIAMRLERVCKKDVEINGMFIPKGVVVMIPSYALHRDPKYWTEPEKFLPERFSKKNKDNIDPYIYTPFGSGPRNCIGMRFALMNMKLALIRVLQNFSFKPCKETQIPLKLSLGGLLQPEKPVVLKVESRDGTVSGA
Chain of Voltage-gated inwardly rectifying potassium channel KCNH2 (Q12809 whole entry): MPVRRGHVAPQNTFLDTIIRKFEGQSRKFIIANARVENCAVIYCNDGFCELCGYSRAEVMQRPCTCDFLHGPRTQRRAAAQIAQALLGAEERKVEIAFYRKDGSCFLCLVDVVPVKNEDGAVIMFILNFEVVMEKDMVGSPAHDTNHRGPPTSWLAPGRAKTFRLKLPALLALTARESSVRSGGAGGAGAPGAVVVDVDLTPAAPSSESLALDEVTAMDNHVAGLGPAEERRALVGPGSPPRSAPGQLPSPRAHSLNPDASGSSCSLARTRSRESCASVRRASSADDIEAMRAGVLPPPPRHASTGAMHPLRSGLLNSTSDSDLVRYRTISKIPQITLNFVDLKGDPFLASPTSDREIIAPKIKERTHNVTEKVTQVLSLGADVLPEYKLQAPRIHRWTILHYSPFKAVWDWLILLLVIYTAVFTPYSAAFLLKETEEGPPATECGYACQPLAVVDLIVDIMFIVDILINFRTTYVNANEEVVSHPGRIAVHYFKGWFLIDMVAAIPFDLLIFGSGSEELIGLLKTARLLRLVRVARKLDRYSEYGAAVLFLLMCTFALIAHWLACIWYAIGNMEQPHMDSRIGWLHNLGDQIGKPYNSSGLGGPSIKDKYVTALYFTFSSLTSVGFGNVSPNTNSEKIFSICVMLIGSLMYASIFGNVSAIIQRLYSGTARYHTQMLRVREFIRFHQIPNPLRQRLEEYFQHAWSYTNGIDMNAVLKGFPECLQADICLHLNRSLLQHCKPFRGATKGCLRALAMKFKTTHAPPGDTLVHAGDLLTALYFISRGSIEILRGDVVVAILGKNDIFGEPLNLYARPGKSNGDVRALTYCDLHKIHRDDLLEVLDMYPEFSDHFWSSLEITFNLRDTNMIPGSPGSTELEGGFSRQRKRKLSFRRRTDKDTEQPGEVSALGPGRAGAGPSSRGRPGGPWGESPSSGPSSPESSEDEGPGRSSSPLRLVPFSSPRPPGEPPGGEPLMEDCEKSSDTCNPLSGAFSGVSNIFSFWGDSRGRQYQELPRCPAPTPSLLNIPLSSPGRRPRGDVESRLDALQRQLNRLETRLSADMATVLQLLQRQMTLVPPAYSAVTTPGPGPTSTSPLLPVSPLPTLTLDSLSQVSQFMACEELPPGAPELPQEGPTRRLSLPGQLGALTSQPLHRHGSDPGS
Chain of Cytochrome P450 2C9 (P11712 whole entry): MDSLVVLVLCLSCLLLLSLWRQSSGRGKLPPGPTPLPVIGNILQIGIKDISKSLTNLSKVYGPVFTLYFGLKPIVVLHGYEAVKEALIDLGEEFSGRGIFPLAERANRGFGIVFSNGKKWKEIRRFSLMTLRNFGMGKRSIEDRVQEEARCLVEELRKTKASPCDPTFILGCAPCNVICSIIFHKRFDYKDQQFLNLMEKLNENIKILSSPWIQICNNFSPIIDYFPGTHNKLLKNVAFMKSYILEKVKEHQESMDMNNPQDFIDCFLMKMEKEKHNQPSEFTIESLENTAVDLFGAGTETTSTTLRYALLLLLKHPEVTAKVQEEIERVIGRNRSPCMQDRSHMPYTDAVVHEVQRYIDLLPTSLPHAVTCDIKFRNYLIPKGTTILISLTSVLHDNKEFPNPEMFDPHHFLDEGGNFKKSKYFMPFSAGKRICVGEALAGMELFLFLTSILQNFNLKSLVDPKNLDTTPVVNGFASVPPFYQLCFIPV
Chain of Cytochrome P450 2C19 (P33261 whole entry): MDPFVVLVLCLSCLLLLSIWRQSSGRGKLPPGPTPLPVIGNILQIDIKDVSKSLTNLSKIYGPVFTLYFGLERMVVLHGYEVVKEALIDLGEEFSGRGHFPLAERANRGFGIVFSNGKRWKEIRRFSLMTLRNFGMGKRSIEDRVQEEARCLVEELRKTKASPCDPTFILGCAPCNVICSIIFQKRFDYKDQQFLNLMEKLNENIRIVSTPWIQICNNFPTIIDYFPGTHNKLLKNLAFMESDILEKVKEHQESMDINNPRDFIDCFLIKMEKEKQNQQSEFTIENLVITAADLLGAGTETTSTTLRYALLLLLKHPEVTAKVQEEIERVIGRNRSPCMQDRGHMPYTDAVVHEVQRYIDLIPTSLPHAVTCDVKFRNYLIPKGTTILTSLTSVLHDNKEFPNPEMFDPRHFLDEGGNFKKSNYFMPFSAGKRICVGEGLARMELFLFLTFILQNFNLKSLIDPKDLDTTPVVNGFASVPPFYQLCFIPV
Chain of Albumin (P02768 whole entry): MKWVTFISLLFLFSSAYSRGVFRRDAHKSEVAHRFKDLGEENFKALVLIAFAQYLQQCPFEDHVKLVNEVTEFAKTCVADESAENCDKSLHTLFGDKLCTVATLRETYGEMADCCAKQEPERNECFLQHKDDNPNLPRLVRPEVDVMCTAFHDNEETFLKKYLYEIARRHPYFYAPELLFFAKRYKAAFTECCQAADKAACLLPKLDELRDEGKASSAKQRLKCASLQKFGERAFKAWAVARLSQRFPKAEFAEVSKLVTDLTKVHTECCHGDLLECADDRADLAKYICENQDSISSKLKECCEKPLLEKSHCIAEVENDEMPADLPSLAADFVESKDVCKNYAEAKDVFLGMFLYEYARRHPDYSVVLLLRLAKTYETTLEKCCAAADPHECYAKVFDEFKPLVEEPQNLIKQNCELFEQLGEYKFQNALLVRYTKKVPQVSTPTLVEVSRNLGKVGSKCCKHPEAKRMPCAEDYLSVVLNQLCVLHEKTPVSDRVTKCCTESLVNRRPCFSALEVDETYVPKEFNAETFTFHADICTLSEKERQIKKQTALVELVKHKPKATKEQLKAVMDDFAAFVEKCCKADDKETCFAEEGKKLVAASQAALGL
Chain of Cytochrome P450 2D6 (P10635 whole entry): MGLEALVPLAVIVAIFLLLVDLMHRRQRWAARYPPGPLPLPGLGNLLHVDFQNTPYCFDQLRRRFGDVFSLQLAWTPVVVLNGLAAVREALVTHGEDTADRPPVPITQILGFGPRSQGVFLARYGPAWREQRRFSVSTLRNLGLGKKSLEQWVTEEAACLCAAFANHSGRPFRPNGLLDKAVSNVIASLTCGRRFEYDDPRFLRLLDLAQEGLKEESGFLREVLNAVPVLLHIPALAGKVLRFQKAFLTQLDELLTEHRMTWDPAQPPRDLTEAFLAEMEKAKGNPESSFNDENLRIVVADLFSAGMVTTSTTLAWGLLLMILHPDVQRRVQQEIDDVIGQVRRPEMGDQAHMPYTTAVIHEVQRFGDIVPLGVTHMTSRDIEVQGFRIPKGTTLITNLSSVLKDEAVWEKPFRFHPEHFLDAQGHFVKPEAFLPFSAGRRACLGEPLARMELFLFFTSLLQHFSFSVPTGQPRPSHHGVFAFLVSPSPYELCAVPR

Molecule O=C(Nc1cc(OC(F)(F)F)cc(-c2cccnc2)c1)N1CCc2ccc(F)cc21 has an IC50 [1] of 10 nM, a CLH [2] of 2.1 mL/min/g and a CLH [3] of 0.5 mL/min/g. For the same molecule, the IC50 [4] was 600 nM and the IC50 [5] was 10 nM.
CN1CCN(c2cc3c(cc2Cl)CCN3C(=O)Nc2cc(OC(F)(F)F)cc(-c3cccnc3)c2)CC1 showed an IC50 [1] of 140 nM, an inhibition in vivo at 50 mg/kg [6] of 35% and an IC50 [4] of 10000 nM. For the same molecule, the Activity [7] was “Active” and the IC50 [5] was 210 nM.
With C[C@@H]1CC[C@H]2[C@@H](C)C(=O)O[C@@H]3O[C@@]4(C)CC[C@@H]1[C@]32OO4 [ARTEMISININ] the IC50 [1] was 20 nM and the Activity [8] was “Active”.
For O=C(Nc1cc(OC(F)(F)F)cc(-c2cccnc2)c1)N1CCc2ccc(Br)cc21, the IC50 [1] was 190 nM and the IC50 [5] was 640 nM.
COc1cc2c(cc1C(F)(F)F)N(C(=O)Nc1cc(Br)cc(OC(F)(F)F)c1)CC2 gave an IC50 [1] of 4840 nM and an IC50 [4] of 390 nM.
COc1cc2c(cc1C(F)(F)F)N(C(=O)Nc1cc(OC(F)(F)F)cc(-c3ccccc3)c1)CC2 gave an IC50 [1] of 2260 nM.
In the case of COc1ccc2c(c1)N(C(=O)Nc1cc(OC(F)(F)F)cc(-c3cccnc3)c1)CC2, the IC50 [1] is reported as 90 nM and the IC50 [4] is reported as 120 nM.
Molecule Cc1cc2c(cc1Cl)N(C(=O)Nc1cc(OC(F)(F)F)cc(-c3cccnc3)c1)CC2 has an IC50 [1] of 20 nM and an IC50 [5] of 140 nM.
Work on COc1cc2c(cc1C(F)(F)F)N(C(=O)Nc1cc(C)cc(OC(F)(F)F)c1)CC2 yielded an IC50 [1] of over 5000 nM.
O=C(Nc1cc(OC(F)(F)F)cc(-c2cccnc2)c1)N1CCc2ccc(Cl)cc21 gave an IC50 [1] of 150 nM.
In the case of COc1cc2c(cc1C(F)(F)F)N(C(=O)Nc1cc(OC(F)(F)F)cc(-c3cncnc3)c1)CC2, the IC50 [1] is reported as 30 nM and the IC50 [5] is reported as over 1000 nM.
In the case of COc1cc2c(cc1C(F)(F)F)N(C(=O)Nc1cc(Br)cc(-c3cccnc3)c1)CC2, the IC50 [1] is reported as 160 nM, the IC50 [4] is reported as 10 nM and the IC50 [5] is reported as 1100 nM.
COc1cc2c(cc1C(F)(F)F)N(C(=O)Nc1cccc(-c3cccnc3)c1)CC2 showed an IC50 [1] of 4450 nM and an IC50 [4] of 7 nM.
Work on O=C(Nc1cc(OC(F)(F)F)cc(-c2cccnc2)c1)N1CCc2cc(F)ccc21 yielded an IC50 [1] of 10 nM.
With O=C(Nc1cc(OC(F)(F)F)cc(-c2cccnc2)c1)N1CCc2ccccc21 the IC50 [1] was 10 nM, the IC50 [4] was 1250 nM and the IC50 [5] was 20 nM.
Work on O=C(Nc1cc(OC(F)(F)F)cc(-c2cccnc2)c1)N1CCc2cccc(F)c21 yielded an IC50 [1] of 410 nM, an IC50 [4] of over 40000 nM and an IC50 [5] of 1070 nM.
O=C(Nc1cc(OC(F)(F)F)cc(-c2cccnc2)c1)N1CCc2cc(C(F)(F)F)ccc21 gave an IC50 [1] of 20 nM.
In the case of CCN(CC)CCCC(C)Nc1ccnc2cc(Cl)ccc12 (stereo unspecified), the Activity [8] is reported as “Active”.
COc1cc2c(cc1C(F)(F)F)N(C(=O)Nc1cc(OC(F)(F)F)cc(-c3ccc(C)nc3)c1)CC2 gave an IC50 [1] of 290 nM and an IC50 [5] of 800 nM.
Work on COc1cc2c(cc1C(F)(F)F)N(C(=O)Nc1cc(OC(F)(F)F)cc(-c3cc[nH]c3)c1)CC2 yielded an IC50 [1] of 1070 nM.
With Cc1ccc2c(c1)CCN2C(=O)Nc1cc(OC(F)(F)F)cc(-c2cccnc2)c1 the IC50 [1] was 10 nM and the IC50 [5] was 40 nM.
Work on COc1cc2c(cc1C(F)(F)F)N(C(=O)Nc1cc(-c3cccnc3)cc(C(F)(F)F)c1)CC2 yielded an IC50 [1] of 140 nM, an IC50 [4] of 10 nM and an IC50 [5] of 810 nM.
Work on CCc1nc(N)nc(N)c1-c1ccc(Cl)cc1 [PYRIMETHAMINE] yielded an IC50 [1] of 20 nM and an IC50 [5] of over 40000 nM.
With Cc1ccc2c(c1)N(C(=O)Nc1cc(OC(F)(F)F)cc(-c3cccnc3)c1)CC2 the IC50 [1] was 30 nM.
In the case of COc1cc2c(cc1C(F)(F)F)N(C(=O)Nc1cccc(OC(F)(F)F)c1)CC2, the IC50 [1] is reported as over 5000 nM.
Work on COc1cc2c(cc1C(F)(F)F)N(C(=O)Nc1cc(F)cc(-c3cccnc3)c1)CC2 yielded an IC50 [1] of 430 nM, an IC50 [4] of 10 nM and an IC50 [5] of 2120 nM.
In the case of COc1cc2c(cc1C(F)(F)F)N(C(=O)Nc1cc(OC(F)(F)F)cc(-c3cccnc3)c1)CC2, the IC50 [9] is reported as 13000 nM, the CC50 at 48 h [10] is reported as 3200 nM and the “Ratio IC50” value [11] is reported as over 10. For the same molecule, the IC50 [12] was 2000 nM, the solubility thermodynamic at 24 h [13] was under 0.1 µg/mL and the Activity [14] was over 16 µM. It also gave an IC50 [15] of over 50000 nM, a CHI [16] of 4.22 and an IC50 [17] of over 50000 nM. For the same molecule, the CC50 at 48 h [18] was 7000 nM, the CLH [2] was under 0.3 mL/min/g and the Activity [19] was “Active”. For the same molecule, the CC50 at 48 h [20] was over 12500 nM, the IC50 [21] was 40 nM and the CLH [3] was under 0.3 mL/min/g. For the same molecule, the solubility thermodynamic at 24 h [22] was 16.7 µg/mL (≈ 33.6 µM), the IC50 [4] was 50 nM and the IC50 [23] was 25 nM. The CHI [24] was 4.18, the CC50 at 48 h [25] was over 12500 nM and the Activity [26] was 97.8%. For the same molecule, the CC50 at 48 h [27] was over 12500 nM, the fraction unbound at 1 ug/mL [28] was 0.002 and the CHI [29] was 3.09. For the same molecule, the IC50 [30] was 90 nM, the IC50 [5] was over 1000 nM and the solubility thermodynamic at 24 h [31] was under 0.1 µg/mL. It also gave a solubility thermodynamic at 24 h [32] of 1550 µg/mL (≈ 3120 µM).
In the case of O=C(Nc1cc(OC(F)(F)F)cc(-c2cccnc2)c1)N1CCc2ccc(CO)cc21, the IC50 [1] is reported as 400 nM and the IC50 [4] is reported as 180 nM.
CN1CCN(c2ccc3c(c2)N(C(=O)Nc2cc(OC(F)(F)F)cc(-c4cccnc4)c2)CC3)CC1 showed an IC50 [1] of 490 nM and an IC50 [4] of over 40000 nM.
